Experimental data reported in patent publication US8426449B2, “Aminoalkylphenyl antagonists of prostaglandin D2 receptors” (Panmira Pharmaceuticals, LLC, priority 2008, dated 2013).

Target: T1, human DP2 receptor (Homo sapiens, UniProt Q9Y5Y4)
T1 construct: expressed in transfected cells
T1 sequence (Q9Y5Y4 1-395): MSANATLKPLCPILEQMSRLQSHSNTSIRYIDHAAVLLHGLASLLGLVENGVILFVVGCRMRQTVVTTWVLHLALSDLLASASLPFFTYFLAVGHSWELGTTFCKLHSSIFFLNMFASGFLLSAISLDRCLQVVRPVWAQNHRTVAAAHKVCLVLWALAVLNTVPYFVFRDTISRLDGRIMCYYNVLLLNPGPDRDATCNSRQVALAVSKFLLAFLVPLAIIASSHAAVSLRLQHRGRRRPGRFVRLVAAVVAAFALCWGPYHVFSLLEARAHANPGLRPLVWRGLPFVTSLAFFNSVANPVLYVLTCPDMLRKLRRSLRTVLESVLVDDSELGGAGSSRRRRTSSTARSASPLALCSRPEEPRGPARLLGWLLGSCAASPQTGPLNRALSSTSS
Test: DP2/CRTH2 radioligand binding assay using [3H]PGD2
Conditions: hDP2 (CRTH2) binding assay, membranes of HEK293 cells expressing recombinant human DP2
Description: The ability of a compound to bind to the human DP2 receptor is assessed via a radioligand binding assay using [^3H]PGD2. HEK293 cells stably expressing recombinant human DP2 are resuspended in 10 mM Hepes, 7.4 containing 1 mM DTT, lysed and centrifuged at 75,000×g to pellet the membranes. The membranes are resuspended in 10 mM Hepes, 7.4 containing 1 mM DTT and 10% glycerol to approximately 5 mg protein/ml. Membranes (2-10 μg protein/well) are incubated in 96-well plates with 1 nM [^3H]PGD2 and test compound in Assay Buffer (50 mM Hepes, 10 mM MnCl2, 1 mM EDTA, plus or minus 0.2% human serum albumin, pH 7.4) for 60 minutes at room temperature. The reactions are terminated by rapid filtration through Whatman GF/C glass fibre filter plates. The filter plates were pre-soaked in 0.33% polyethylenimine for 30 minutes at room temperature then washed in Wash Buffer (50 mM Hepes, 0.5 M NaCl pH 7.4) prior to harvesting. After harvesting, the filter plates are washed 3 times with 1 ml cold Wash Buffer then dried. Scintillant is then added to the plates and the radioactivity retained on the filters is determined on a Packard TopCount (Perkin Elmer). Specific binding is determined as total radioactive binding minus non-specific binding in the presence of 10 μM PGD2. IC50s were determined using GraphPad prism analysis of drug titration curves.

Compound | IC50
COC(=O)N(Cc1cc(N(C)S(C)(=O)=O)ccc1Oc1cccc(C(C)C(=O)O)c1)[C@@H](C)Cc1ccccc1 (stereo partly drawn) [Compound 1-43, 2-[3-(4-(Methanesulfonyl-methyl-amino)-2-{[methoxycarbonyl-((S)-1-methyl-2-phenyl-ethyl)-amino]-methyl}-phenoxy)-phenyl]-propionic acid] | > 1000 nM
CCN(Cc1cc(C(F)(F)F)ccc1Oc1cc(CC(=O)O)ccc1OC)C(=O)OC [Compound 1-36, (3-{2-[(Ethyl-methoxycarbonyl-amino)-methyl]-4-trifluoromethyl-phenoxy}-4-methoxy-phenyl)-acetic acid] | > 300 nM
COC(=O)N(Cc1cc(N(C)S(C)(=O)=O)ccc1Oc1cccc(CC(=O)O)c1)[C@@H](C)Cc1ccccc1 [Compound 1-42, [3-(4-(Methanesulfonyl-methyl-amino)-2-{[methoxycarbonyl-((S)-1-methyl-2-phenyl-ethyl)-amino]-methyl}-phenoxy)-phenyl]-acetic acid] | > 300 nM
COc1ccc(S(=O)(=O)N(C)Cc2cc(C(F)(F)F)ccc2Oc2cccc(CC(=O)O)c2)cc1 [Compound 1-25, [3-(2-{[(4-Methoxy-benzenesulfonyl)-methyl-amino]-methyl}-4-trifluoromethyl-phenoxy)-phenyl]-acetic acid] | > 300 nM
CN(Cc1cc(C(F)(F)F)ccc1Oc1cccc(CC(=O)O)c1)S(=O)(=O)c1ccccc1C(F)(F)F [Compound 1-24, [3-(2-{[Methyl-(2-trifluoromethyl-benzenesulfonyl)-amino]-methyl}-4-trifluoromethyl-phenoxy)-phenyl]-acetic acid] | > 300 nM
COC(=O)N(Cc1cc(N(C)C(C)=O)ccc1Oc1cccc(C(C)C(=O)O)c1)[C@@H](C)Cc1ccccc1 (stereo partly drawn) [Compound 1-40, 2-[3-(4-(Acetyl-methyl-amino)-2-{[methoxycarbonyl-((S)-1-methyl-2-phenyl-ethyl)-amino]-methyl}-phenoxy)-phenyl]-propionic acid] | > 300 nM
COc1ccc(CC(=O)O)cc1Oc1ccc(C(F)(F)F)cc1CN(Cc1ccccc1)C(C)=O [Compound 1-35, (3-{2-[(Acetyl-benzyl-amino)-methyl]-4-trifluoromethyl-phenoxy}-4-methoxy-phenyl)-acetic acid] | < 300 nM
COC(=O)N(Cc1cc(C(F)(F)F)ccc1Oc1cccc(CC(=O)O)c1)C1CCc2ccccc21 (stereo in doubt) [Compound 1-19, (3-{2-[((R)-Indan-1-yl-methoxycarbonyl-amino)-methyl]-4-trifluoromethyl-phenoxy}-phenyl)-acetic acid] | < 300 nM
O=C(O)CCn1c2c(c3ccccc31)C[C@H](NS(=O)(=O)c1ccc(F)cc1)CC2 [Ramatroban, reference compound] | > 300 nM
COC(=O)N(Cc1cc(C(F)(F)F)ccc1Oc1cccc(CC(=O)O)c1)C1Cc2ccccc2C1 [Compound 1-20, (3-{2-[(Indan-2-yl-methoxycarbonyl-amino)-methyl]-4-trifluoromethyl-phenoxy}-phenyl)-acetic acid] | < 300 nM
COC(=O)N(Cc1cc(N(C)C(C)=O)ccc1Oc1cccc(CC(=O)O)c1)[C@@H](C)Cc1ccccc1 [Compound 1-39, [3-(4-(Acetyl-methyl-amino)-2-{[methoxycarbonyl-((S)-1-methyl-2-phenyl-ethyl)-amino]-methyl}-phenoxy)-phenyl]-acetic acid] | > 300 nM
CCN(Cc1cc(C(F)(F)F)ccc1Oc1cc(CC(=O)O)ccc1OC)C(C)=O [Compound 1-34, (3-{2-[(Acetyl-ethyl-amino)-methyl]-4-trifluoromethyl-phenoxy}-4-methoxy-phenyl)-acetic acid] | > 300 nM
CCN(Cc1cc(C(F)(F)F)ccc1Oc1cccc(CC(=O)O)c1)S(=O)(=O)c1ccc(Nc2cccc(C)c2)cc1 [Compound 1-32, [3-(2-{[Ethyl-(4-m-tolylamino-benzenesulfonyl)-amino]-methyl}-4-trifluoromethyl-phenoxy)-phenyl]-acetic acid] | < 300 nM

More lines, now with the values ahead:

IC50 | Compound
< 300 nM | CCN(Cc1cc(C(F)(F)F)ccc1Oc1cccc(CC(=O)O)c1)S(=O)(=O)c1ccc(C(C)=O)cc1 [Compound 1-29, [3-(2-{[(4-Acetyl-benzenesulfonyl)-ethyl-amino]-methyl}-4-trifluoromethyl-phenoxy)-phenyl]-acetic acid]
< 300 nM | CN(Cc1cc(C(F)(F)F)ccc1Oc1cccc(CC(=O)O)c1)C(=O)Cc1ccccc1 [Compound 1-16, (3-{2-[(Methyl-phenylacetyl-amino)-methyl]-4-trifluoromethyl-phenoxy}-phenyl)-acetic acid]
< 300 nM | CCN(Cc1cc(C(F)(F)F)ccc1Oc1cccc(CC(=O)O)c1)C(=O)c1ccccc1 [Compound 1-17, (3-{2-[(Benzoyl-ethyl-amino)-methyl]-4-trifluoromethyl-phenoxy}-phenyl)-acetic acid]
< 300 nM | O=C(O)Cc1cccc(Oc2ccc(C(F)(F)F)cc2CNS(=O)(=O)c2ccc(Cl)cc2)c1 [Compound 1-22, (3-{2-[(4-Chloro-benzenesulfonylamino)-methyl]-4-trifluoromethyl-phenoxy}-phenyl)-acetic acid]
< 300 nM | CN(Cc1cc(C(F)(F)F)ccc1Oc1cccc(CC(=O)O)c1)C(=O)OCc1ccccc1 [Compound 1-21, (3-{2-[(Benzyloxycarbonyl-methyl-amino)-methyl]-4-trifluoromethyl-phenoxy}-phenyl)-acetic acid]
< 300 nM | CCN(Cc1cc(C(F)(F)F)ccc1Oc1cccc(CC(=O)O)c1)S(=O)(=O)c1ccc(OC)cc1 [Compound 1-26, [3-(2-{[Ethyl-(4-methoxy-benzenesulfonyl)-amino]-methyl}-4-trifluoromethyl-phenoxy)-phenyl]-acetic acid]
< 300 nM | CCN(Cc1cc(C(F)(F)F)ccc1Oc1cccc(CC(=O)O)c1)S(=O)(=O)c1ccc(Br)cc1 [Compound 1-31, [3-(2-{[(4-Bromo-benzenesulfonyl)-ethyl-amino]-methyl}-4-trifluoromethyl-phenoxy)-phenyl]-acetic acid]
< 300 nM | CCN(Cc1cc(NC(=O)C(C)(C)C)ccc1Oc1cc(CC(=O)O)ccc1OC)C(=O)C1CC1 [Compound 1-47, {3-[2-[(Cyclopropanecarbonyl-ethyl-amino)-methyl]-4-(2,2-dimethyl-propionylamino)-phenoxy]-4-methoxy-phenyl}-acetic acid]
< 300 nM | CCN(Cc1cc(C(F)(F)F)ccc1Oc1cccc(CC(=O)O)c1)S(=O)(=O)c1ccc2ccccc2c1 [Compound 1-30, [3-(2-{[Ethyl-(naphthalene-2-sulfonyl)-amino]-methyl}-4-trifluoromethyl-phenoxy)-phenyl]-acetic acid]
< 300 nM | CCN(Cc1cc(NC(=O)c2ccc(Cl)cc2)ccc1Oc1cc(CC(=O)O)ccc1OC)C(=O)OCc1ccccc1 [Compound 1-44, {3-[2-[(Benzyloxycarbonyl-ethyl-amino)-methyl]-4-(4-chloro-benzoylamino)-phenoxy]-4-methoxy-phenyl}-acetic acid]
< 300 nM | COC(=O)N(Cc1ccccc1)Cc1cc(Br)ccc1Oc1cccc(CC(=O)O)c1 [Compound 1-3, (3-{2-[(Benzyl-methoxycarbonyl-amino)-methyl]-4-bromo-phenoxy}-phenyl)-acetic acid]
< 300 nM | CCN(Cc1cc(C(F)(F)F)ccc1Oc1cccc(CC(=O)O)c1)S(=O)(=O)c1ccc(N(C)c2cccc(C)c2)cc1 [Compound 1-33, {3-[2-({Ethyl-[4-(methyl-m-tolyl-amino)-benzenesulfonyl]-amino}-methyl)-4-trifluoromethyl-phenoxy]-phenyl}-acetic acid]
< 300 nM | O=C(O)Cc1cccc(Oc2ccc(Br)cc2CN(C(=O)OCc2ccccc2)C2CCc3ccccc32)c1 (stereo in doubt) [Compound 1-6, (3-{2-[((R)-Benzyloxycarbonyl-indan-1-yl-amino)-methyl]-4-bromo-phenoxy}-phenyl)-acetic acid]
< 300 nM | COC(=O)N(Cc1cc(Br)ccc1Oc1cccc(CC(=O)O)c1)[C@@H](C)Cc1ccccc1 [Compound 1-5, [3-(4-Bromo-2-{[methoxycarbonyl-((S)-1-methyl-2-phenyl-ethyl)-amino]-methyl}-phenoxy)-phenyl]-acetic acid]
< 300 nM | CC(=O)N(CCc1ccccc1)Cc1cc(Br)ccc1Oc1cccc(CC(=O)O)c1 [Compound 1-1, (3-{2-[(Acetyl-phenethyl-amino)-methyl]-4-bromo-phenoxy}-phenyl)-acetic acid]
< 300 nM | CC(=O)N(Cc1cc(C(F)(F)F)ccc1Oc1cccc(CC(=O)O)c1)C1CCc2ccccc21 (stereo in doubt) [Compound 1-13, (3-{2-[((R)-Acetyl-indan-1-yl-amino)-methyl]-4-trifluoromethyl-phenoxy}-phenyl)-acetic acid]
